Measurements published in US6737383B1, “Herbicidal oxadiazolidines” (priority 1999, dated 2004).

Assays:
blackgrass = test: Test B pre/postemergence blackgrass; format: in vivo, Alopecurus myosuroides
How it was run: (§1)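 Test chemicals in a non-phytotoxic solvent mixture with surfactant were sprayed preemergence onto planted seeds and postemergence onto plants 2 to 18 cm tall (1- to 4-leaf stage). After twelve to sixteen days in a greenhouse, injury was visually rated against untreated controls from 0 (no effect) to 10 (complete control).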

cocklebur = test: Test B pre/postemergence cocklebur; format: in vivo, Xanthium strumarium
How it was run: as §1

giant foxtail = test: Test B pre/postemergence giant foxtail; format: in vivo, Setaria faberii
How it was run: as §1

morningglory = test: Test B pre/postemergence morningglory; format: in vivo, Ipomoea hederacea; conditions: for Plant response rating, Morningglory: scale of 0 to 10 where 0 is no effect and 10 is complete control
How it was run: as §1

pigweed = test: Test B pre/postemergence pigweed; format: in vivo, Amaranthus retroflexus; conditions: for Plant response rating, Redroot pigweed: scale of 0 to 10 where 0 is no effect and 10 is complete control
How it was run: as §1

rape = test: Test B pre/postemergence rape; format: in vivo, Brassica napus; conditions: for Plant response rating, Rape: scale of 0 to 10 where 0 is no effect and 10 is complete control
How it was run: as §1

soybean = test: Test B pre/postemergence soybean; format: in vivo, Glycine max; conditions: for Plant response rating, Soybean: scale of 0 to 10 where 0 is no effect and 10 is complete control
How it was run: as §1

sugar beet = test: Test B pre/postemergence sugar beet; format: in vivo, Beta vulgaris; conditions: for Plant response rating, Sugarbeets: scale of 0 to 10 where 0 is no effect and 10 is complete control
How it was run: as §1

velvetleaf = test: Test B pre/postemergence velvetleaf; format: in vivo, Abutilon theophrasti; conditions: for Plant response rating, Velvetleaf: scale of 0 to 10 where 0 is no effect and 10 is complete control
How it was run: as §1

wheat = test: Test B pre/postemergence wheat; format: in vivo, Triticum aestivum; conditions: for Plant response rating, Wheat: scale of 0 to 10 where 0 is no effect and 10 is complete control
How it was run: as §1

wild oat = test: Test B pre/postemergence wild oat; format: in vivo, Avena fatua; conditions: for Plant response rating, Wild oats: scale of 0 to 10 where 0 is no effect and 10 is complete control
How it was run: as §1

purple nutsedge = test: Test B pre/postemergence purple nutsedge; format: in vivo, Cyperus rotundus; conditions: for Plant response rating, Nutsedge: scale of 0 to 10 where 0 is no effect and 10 is complete control
How it was run: as §1

rice = test: Test B flood test rice; format: in vivo, Oryza sativa
How it was run: (§2)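 Each value is a visual injury score relative to controls, with 10 meaning complete control and 0 no effect. Evaluation took place twelve to sixteen days after the 2-leaf-stage plants were treated and kept in the greenhouse.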

smallflower flatsedge = test: Test B flood test smallflower flatsedge; format: in vivo, Cyperus difformis
How it was run: as §2

duck salad = test: Test B flood test duck salad; format: in vivo, Heteranthera limosa
How it was run: as §2

bamyardgrass = test: Test B flood test barnyardgrass; format: in vivo, Echinochloa crus-galli
How it was run: as §2

[1] = Postemergence, Rate 250 g/ha, scale 0 to 10
[2] = Postemergence, Rate 500 g/ha, scale of 0 to 10 where 0 is no effect and 10 is complete control
[3] = Preemergence, Rate 62 g/ha, scale of 0 to 10 where 0 is no effect and 10 is complete control
[4] = Preemergence, Rate 125 g/ha, scale of 0 to 10 where 0 is no effect and 10 is complete control
[5] = Preemergence, Rate 250 g/ha, scale 0 to 10, 0 is no effect, 10 is complete control
[6] = Preemergence, Rate 500 g/ha, scale 0 to 10, 0 is no effect, 10 is complete control
[7] = Rate 62 g/ha, Postemergence, scale 0 to 10 (0 no effect, 10 complete control)
[8] = Rate 125 g/ha, Postemergence, scale 0 to 10, 0 is no effect, 10 is complete control
[9] = Rate 62 g/ha, flood test species, Pre-emergence, visual evaluation after twelve to sixteen days
[10] = Rate 125 g/ha, under heading Pre-emergence, flood test species, visual evaluation after twelve to sixteen days
[11] = Rate 250 g/ha, Pre-emergence (flood test species), scale 0 to 10, 0 is no effect, 10 is complete control
[12] = Rate 500 g/ha, Pre-emergence, flood test species, scale 0 to 10 (0 no effect, 10 complete control)

CC(C)N(C(=O)n1oc(=O)n(COC(=O)C(C)(C)C)c1=O)c1ccc(F)cc1 [Compound 462]
Blackgrass plant response rating (blackgrass; [1]): 0
Blackgrass plant response rating (blackgrass; [2]): 0
Plant response rating, Blackgrass (blackgrass; [3]): 0
Plant response rating, Blackgrass (blackgrass; [4]): 0
Blackgrass plant response rating (blackgrass; [5]): 0
Blackgrass plant response rating (blackgrass; [6]): 0
Blackgrass plant response rating (blackgrass; [7]): 0
Blackgrass plant response rating (blackgrass; [8]): 0
Cocklebur plant response rating (cocklebur; [1]): 0
Cocklebur plant response rating (cocklebur; [2]): 0
Plant response rating, Cocklebur (cocklebur; [3]): 0
Plant response rating, Cocklebur (cocklebur; [4]): 0
Cocklebur plant response rating (cocklebur; [5]): 0
Cocklebur plant response rating (cocklebur; [6]): 0
Cocklebur plant response rating (cocklebur; [7]): 0
Cocklebur plant response rating (cocklebur; [8]): 0
Giant foxtail plant response rating (giant foxtail; [1]): 0
Giant foxtail plant response rating (giant foxtail; [2]): 0
Plant response rating, Giant foxtail (giant foxtail; [3]): 0
Plant response rating, Giant foxtail (giant foxtail; [4]): 0
Giant foxtail plant response rating (giant foxtail; [5]): 0
Giant foxtail plant response rating (giant foxtail; [6]): 0
Giant foxtail plant response rating (giant foxtail; [7]): 0
Giant foxtail plant response rating (giant foxtail; [8]): 0
Morningglory plant response rating (morningglory; [1]): 0
Plant response rating, Morningglory (morningglory; Preemergence, Rate 62 g/ha): 0
Plant response rating, Morningglory (morningglory; Preemergence, Rate 125 g/ha): 0
Morningglory plant response rating (morningglory; [5]): 0
Morningglory plant response rating (morningglory; [6]): 0
Morningglory plant response rating (morningglory; [7]): 0
Morningglory plant response rating (morningglory; [8]): 0
Redroot pigweed plant response rating (pigweed; [1]): 0
Plant response rating, Redroot pigweed (pigweed; Preemergence, Rate 62 g/ha): 0
Plant response rating, Redroot pigweed (pigweed; Preemergence, Rate 125 g/ha): 0
Redroot pigweed plant response rating (pigweed; [5]): 0
Redroot pigweed plant response rating (pigweed; [6]): 0
Redroot pigweed plant response rating (pigweed; [7]): 0
Redroot pigweed plant response rating (pigweed; [8]): 0
Rape plant response rating (rape; [1]): 0
Plant response rating, Rape (rape; Preemergence, Rate 62 g/ha): 0
Plant response rating, Rape (rape; Preemergence, Rate 125 g/ha): 0
Rape plant response rating (rape; [5]): 0
Rape plant response rating (rape; [6]): 0
Rape plant response rating (rape; [7]): 0
Rape plant response rating (rape; [8]): 0
Plant response rating, Soybean (soybean; Preemergence, Rate 62 g/ha): 0
Plant response rating, Soybean (soybean; Preemergence, Rate 125 g/ha): 0
Soybean plant response rating (soybean; [5]): 0
Soybean plant response rating (soybean; [6]): 0
Soybean plant response rating (soybean; [7]): 0
Soybean plant response rating (soybean; [8]): 1
Sugarbeets plant response rating (sugar beet; [1]): 0
Plant response rating, Sugarbeets (sugar beet; Preemergence, Rate 62 g/ha): 0
Plant response rating, Sugarbeets (sugar beet; Preemergence, Rate 125 g/ha): 0
Sugarbeets plant response rating (sugar beet; [5]): 0
Sugarbeets plant response rating (sugar beet; [6]): 0
Sugarbeets plant response rating (sugar beet; [7]): 0
Sugarbeets plant response rating (sugar beet; [8]): 0
Velvetleaf plant response rating (velvetleaf; [1]): 0
Plant response rating, Velvetleaf (velvetleaf; Preemergence, Rate 62 g/ha): 0
Plant response rating, Velvetleaf (velvetleaf; Preemergence, Rate 125 g/ha): 0
Velvetleaf plant response rating (velvetleaf; [5]): 0
Velvetleaf plant response rating (velvetleaf; [6]): 0
Velvetleaf plant response rating (velvetleaf; [7]): 0
Velvetleaf plant response rating (velvetleaf; [8]): 0
Wheat plant response rating (wheat; [1]): 0
Plant response rating, Wheat (wheat; Preemergence, Rate 62 g/ha): 0
Plant response rating, Wheat (wheat; Preemergence, Rate 125 g/ha): 0
Wheat plant response rating (wheat; [5]): 0
Wheat plant response rating (wheat; [6]): 0
Wheat plant response rating (wheat; [7]): 0
Wheat plant response rating (wheat; [8]): 0
Wild oats plant response rating (wild oat; [1]): 0
Plant response rating, Wild oats (wild oat; Preemergence, Rate 62 g/ha): 0
Plant response rating, Wild oats (wild oat; Preemergence, Rate 125 g/ha): 0
Wild oats plant response rating (wild oat; [5]): 0
Wild oats plant response rating (wild oat; [6]): 0
Wild oats plant response rating (wild oat; [7]): 0
Wild oats plant response rating (wild oat; [8]): 0
Nutsedge plant response rating (purple nutsedge; [1]): 0
Plant response rating, Nutsedge (purple nutsedge; Preemergence, Rate 62 g/ha): 0
Plant response rating, Nutsedge (purple nutsedge; Preemergence, Rate 125 g/ha): 0
Nutsedge plant response rating (purple nutsedge; [5]): 0
Nutsedge plant response rating (purple nutsedge; [6]): 0
Nutsedge plant response rating (purple nutsedge; [7]): 0
Nutsedge plant response rating (purple nutsedge; [8]): 0
Plant response rating, Rice (0 to 10 scale, 0 is no effect, 10 is complete control) (rice; [9]): 0
Rice plant response rating (0 to 10 scale, 0 is no effect, 10 is complete control) (rice; [10]): 0
Rice plant response rating (rice; [11]): 0
Rice plant response rating (rice; [12]): 0
Plant response rating, S. Flatsedge (0 to 10 scale, 0 is no effect, 10 is complete control) (smallflower flatsedge; [9]): 0
S. Flatsedge plant response rating (0 to 10 scale, 0 is no effect, 10 is complete control) (smallflower flatsedge; [10]): 0
S. Flatsedge plant response rating (smallflower flatsedge; [11]): 0
S. Flatsedge plant response rating (smallflower flatsedge; [12]): 0
Plant response rating, Ducksalad (0 to 10 scale, 0 is no effect, 10 is complete control) (duck salad; [9]): 0
Ducksalad plant response rating (0 to 10 scale, 0 is no effect, 10 is complete control) (duck salad; [10]): 0
Ducksalad plant response rating (duck salad; [11]): 0
Ducksalad plant response rating (duck salad; [12]): 0
Plant response rating, Barnyardgrass (0 to 10 scale, 0 is no effect, 10 is complete control) (bamyardgrass; [9]): 0
Barnyardgrass plant response rating (0 to 10 scale, 0 is no effect, 10 is complete control) (bamyardgrass; [10]): 0
Barnyardgrass plant response rating (bamyardgrass; [11]): 0
Barnyardgrass plant response rating (bamyardgrass; [12]): 0
